In brackets after ≈: the same amount, converted by molar mass. Where a SMILES comes first, the peptide text is derived from it. [ ]: non-standard residue; d: D form. The star is where a group is joined. d(aIle) = CC[C@H](C)[C@@H](N)C(=O)O; dDab = NCC[C@@H](N)C(=O)O; Octanoyl = CCCCCCCC(=O)*; Dab = NCC[C@H](N)C(=O)O
Columns and labels:
E. faecalis ATCC 29212 = type: cell-based, Enterococcus faecalis; details: ATCC 29212, 20 h
How it was run: (§1)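 MIC was scored by eye after plates incubated for 20 h at 35 °C. Wells held cation-adjusted Mueller Hinton broth, compound at 0.06 to 64 μg/mL final, and a target inoculum of 2 × 10^5 CFU/mL, following CLSI guidance.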

ATCC 25922 = type: cell-based, Enterococcus faecalis; details: ATCC 25922, 20 h
How it was run: as §1

[1] = test system: Gram-negative ESKAPE pathogens; type: cell-based; details: 20 h
Experimental: (§2) All minimum inhibitory concentrations (MICs) were determined according to the Clinical and Standards Laboratory Institute (CLSI) guidelines. In brief, agar plates were inoculated from glycerol stocks and incubated overnight at 35 °C. Peptide DMSO stocks were dispensed into 96-well round-bottom plates using a TECAN D300e dispenser. Colistin sulfate (Sigma-Aldrich) was dissolved in water and serially diluted in a cation-adjusted Mueller Hinton broth (10 μL per well). Final concentrations of the test compounds were 0.06 to 64 μg/mL. Inocula were prepared by direct colony suspension in NaCl at 0.5 MacFarland, which was further diluted 200-fold in cation-adjusted Mueller Hinton broth for a target inoculum of 2 × 10^5 colony forming units (CFUs)/mL. 100 μL portion of the prepared inoculum was added to each well of the prepared plates containing the test compounds. Plates were sealed with parafilm and incubated for 20 h at 35 °C. Images of all plates were recorded, and MIC was assessed visually.

S. aureus UAMS-1625 = type: cell-based, Staphylococcus aureus; details: S. aureus UAMS-1625 (BV18); CLSI broth dilution, cation-adjusted Mueller Hinton broth, 20 h, 35 °C, read visually
How it was run: as §1

S. aureus 1126387 = type: cell-based, Staphylococcus aureus; details: 1126387, 20 h
How it was run: as §1

S. aureus ATCC 29213 [2] = type: cell-based, Staphylococcus aureus; details: ATCC 29213, 20 h
How it was run: as §1

P. aeruginosa 1226072 = type: cell-based, Pseudomonas aeruginosa; details: 1226072, 20 h
How it was run: as §1

P. aeruginosa 1218019 = type: cell-based, Pseudomonas aeruginosa; details: 1218019, 20 h
How it was run: as §1

P. aeruginosa PAO1 = type: cell-based, Pseudomonas aeruginosa; details: PAO1, 20 h
How it was run: as §1

Rabbit red blood cells = test: Hemolysis assay; type: cell-based; details: rabbit red blood cells in PBS, 37 °C, 1 h, absorbance at 405 nm, normalization to the Triton X-100 control; 0.25 to 128 μg/mL tested
E. coli 1220120 = type: cell-based, Escherichia coli; details: 1220120, 20 h
How it was run: as §1

E. coli 1214245 = type: cell-based, Escherichia coli; details: 1214245, 20 h
How it was run: as §1

E. coli ATCC 25922 = type: cell-based, Escherichia coli; details: ATCC 25922, 20 h
How it was run: as §1

HepG2 cells = test: Cytotoxicity determination (CellTiter-Glo); type: cell-based; details: HepG2, medium without serum, 24 h, normalization to the untreated control, 1 to 128 μg/mL tested
Experimental: HepG2 cells were grown in EMEM (Sigma) supplemented with 2 mM glutamine and 10% fetal bovine serum (Fisher) at 37 °C, 5% CO2. 20′000 cells per well were seeded into clear tissue culture-treated 96-well plates and incubated for 24 h. Peptides, dissolved in DMSO, were dispensed into 96 deep well plates (TECAN D300e dispenser) and diluted to a final concentration of 1 to 128 μg/mL using fresh medium without serum. The next day, the old media were removed from the cells, and 200 μL of the prepared compound dilutions was added per well. Plates were incubated for another 24 h before assessing the cell viability using the CellTiter-Glo kit (Promega) according to the manufacturer’s protocol. IC50s were calculated after normalization to the untreated control.

[3] = test system: Gram-positive bacteria (Staphylococcus aureus, Enterococcus faecalis, Enterococcus faecium); test: MIC, summary over Gram-positive strains; type: cell-based; details: at a concentration of 64 μg/mL; summary of Table 2
Experimental: as §2

E. faecium ATCC 51559 = type: cell-based, Enterococcus faecium; details: ATCC 51559, 20 h
How it was run: as §1

E. faecium IHMA 890472 = type: cell-based, Enterococcus faecium; details: IHMA 890472, 20 h
How it was run: as §1

A. baumannii ATCC 17978 = type: cell-based, Acinetobacter baumannii; details: ATCC 17978, 20 h
How it was run: as §1

A. baumannii IHMA 777621 = type: cell-based, Acinetobacter baumannii; details: IHMA 777621, 20 h
How it was run: as §1

A. baumannii HUMC1 = type: cell-based, Acinetobacter baumannii; details: HUMC1, 20 h
How it was run: as §1

K. pneumoniae ATCC 13883 = type: cell-based, Klebsiella pneumoniae; details: ATCC 13883, 20 h
How it was run: as §1

K. pneumoniae 1228586 = type: cell-based, Klebsiella pneumoniae; details: 1228586, 20 h
How it was run: as §1

K. pneumoniae 1227947 = type: cell-based, Klebsiella pneumoniae; details: 1227947, 20 h
How it was run: as §1

S. aureus ATCC 29213 [4] = test: LIVE/DEAD staining (SYTO 9 / propidium iodide); type: cell-based, Staphylococcus aureus; details: S. aureus ATCC 29213, 1 × MIC, 15 min, microscopy
Experimental: This assay was performed according to a previously described procedure.[55],[56] Briefly, overnight cultures of E. coli ATCC 25922 and S. aureus ATCC 29213 were diluted to an OD600 of 0.2 in MHB and mixed with 1 × MIC of Oct-TriA1, Oct-TriA5, and Oct-TriD. Nisin and polymyxin B were used as positive controls at a concentration of 2-fold MIC. At the same time, green fluorescent nucleic acid stain SYTO 9 (excitation, 450–490 nm; emission, 500–550 nm) and red fluorescent nucleic acid stain propidium iodide (excitation, 574–599 nm; emission, 612–682 nm) (LIVE/DEAD Baclight Bacterial Viability Kit, Invitrogen) were added to the above cell suspensions. After mixing and incubating for 15 min in the dark at RT, cells were briefly sedimented via centrifugation and resuspended in fresh MHB. Then, the cell suspensions were loaded on 1.5% agarose pads and analyzed by a Zeiss Imager M2 microscope. Confocal images were obtained at 4 random locations for each sample and visualized using FIJI version 1.51H.[57]

[5] = test system: Gram-positive lipid II / S. aureus USA300 (MRSA); test: Lipid II antagonization assay; type: cell-based, Staphylococcus aureus; details: compound at 8x MIC, 5-fold molar excess of Gram-positive lipid II, MHB with 0.002% polysorbate-80, 37 °C, 18 h, resazurin, triplicates
Experimental: Laboratory Institute (CLSI) guidelines. Gram-positive lipid II, containing lysine at position 3 of the pentapeptide, was prepared by total chemical synthesis.1,2 Lipid II in 1 : 1 chloroform : methanol (v/v) was added to a polypropylene 96-well plate (5-fold molar excess compared to test antibiotics) and the organic solvent was allowed to evaporate. Oct-TriA5 and vancomycin in MHB (50 µL, 16xMIC) were added to the wells with the 5-fold molar excess of pure Gram-positive lipid II in triplicates and to the control wells without lipid II. Single colony of S. aureus USA300 (MRSA) from a fresh blood agar plate was suspended in TSB and grown to an OD600 of 0.5. The bacterial culture then was diluted in MHB with 0.002% polysorbate-80 to reach 10^6 CFU/mL and 50 µL were mixed with test compounds to achieve the final concentration of 8xMIC for all tested compounds. The plate was incubated at 37°C for 18 h with constant shaking (600 rpm) and subsequently inspected for visible bacterial growth. To visualize the viability of the indicator strain, resazurin sodium salt solution (Merck, Dorset, UK) was added to the cultures to achieve the final concentration of 0.0015% (w/v) and incubated at RT for 1 h.
Figure S4. HPLC trace showing the reinjection of purified Oct-TriD (3). The peptide eluted as a single peak at 17.263 min using the HPLC method A.
Figure S5. […]

Row | SMILES | MIC (E. faecalis ATCC 29212) [µg/mL] | MIC (ATCC 25922) [µg/mL] | MIC (S. aureus UAMS-1625) [µg/mL] | MIC (S. aureus 1126387) [µg/mL] | MIC (S. aureus ATCC 29213 [2]) [µg/mL] | MIC (P. aeruginosa 1226072) [µg/mL] | MIC (P. aeruginosa 1218019) [µg/mL] | MIC (P. aeruginosa PAO1) [µg/mL] | MIC (E. coli 1220120) [µg/mL] | MIC (E. coli 1214245) [µg/mL] | MIC (E. coli ATCC 25922) [µg/mL] | MIC (E. faecium ATCC 51559) [µg/mL] | MIC (E. faecium IHMA 890472) [µg/mL] | MIC (A. baumannii ATCC 17978) [µg/mL] | MIC (A. baumannii IHMA 777621) [µg/mL] | MIC (A. baumannii HUMC1) [µg/mL] | MIC (K. pneumoniae ATCC 13883) [µg/mL] | MIC (K. pneumoniae 1228586) [µg/mL] | MIC (K. pneumoniae 1227947) [µg/mL] | LIVE/DEAD staining, membrane integrity of S. aureus cells (S. aureus ATCC 29213 [4]) | also measured
1 | CCCCCCCC(=O)N[C@@H](C(=O)N[C@H](CCN)C(=O)NCC(=O)N[C@H](CO)C(=O)N[C@H](Cc1c[nH]c2ccccc12)C(=O)N[C@@H](CO)C(=O)N[C@@H](CCN)C(=O)N[C@H](CCN)C(=O)N[C@@H](CO)C(=O)N[C@@H](CCC(=O)O)C(=O)N[C@H](C(=O)N[C@@H](C(=O)N[C@@H](C)C(=O)O)[C@@H](C)CC)C(C)C)C(C)C [Oct-Ser9] (Octanoyl-[dV][dDab]G[dS][dW]S[Dab][dDab]SEV[d(aIle)]A-OH) | >64 | >64 | >64 | >64 | >64 | 32 (≈ 21.9 µM) | 32 (≈ 21.9 µM) | >64 | 32 (≈ 21.9 µM) | 64 (≈ 43.8 µM) | 32 (≈ 21.9 µM) | >64 | >64 | >64 | >64 | >64 | 64 (≈ 43.8 µM) | 8 (≈ 5.48 µM) | >64 |  | MICs, range over Gram-negative pathogens [1]: 8 to 64 µg/mL; Hemolysis EC50 (Rabbit red blood cells): >128 µg/mL; IC50 on HepG2 w/o FCS (HepG2 cells): >128 µg/mL; antibacterial activity against Gram-positive bacteria [3]: no antibacterial activity
2 | CCCCCCCC(=O)N[C@@H](C(=O)N[C@H](CCN)C(=O)NCC(=O)N[C@H](CO)C(=O)N[C@H](Cc1c[nH]c2ccccc12)C(=O)N[C@@H](CO)C(=O)N[C@@H](CCN)C(=O)N[C@H](CCN)C(=O)N[C@@H](Cc1ccccc1)C(=O)N[C@@H](CCC(=O)O)C(=O)N[C@H](C(=O)N[C@@H](C(=O)N[C@@H](C)C(=O)O)[C@@H](C)CC)C(C)C)C(C)C [Oct-TriA1] (Octanoyl-[dV][dDab]G[dS][dW]S[Dab][dDab]FEV[d(aIle)]A-OH) | 32 (≈ 21 µM) | 32 (≈ 21 µM) | 32 (≈ 21 µM) | 32 (≈ 21 µM) | 32 (≈ 21 µM) | 8 (≈ 5.26 µM) | 4 (≈ 2.63 µM) | 64 (≈ 42.1 µM) | 2 (≈ 1.32 µM) | 2 (≈ 1.32 µM) | 2 (≈ 1.32 µM) | 32 (≈ 21 µM) | 16 (≈ 10.5 µM) | 8 (≈ 5.26 µM) | 8 (≈ 5.26 µM) | 16 (≈ 10.5 µM) | 4 (≈ 2.63 µM) | 4 (≈ 2.63 µM) | 4 (≈ 2.63 µM) | still alive | 
3 | CCCCCCCC(=O)N[C@H](Cc1ccccc1)C(=O)N[C@H](CCN)C(=O)N[C@@H](C(=O)N[C@H](CO)C(=O)N[C@H](Cc1c[nH]c2ccccc12)C(=O)N[C@@H](CO)C(=O)N[C@@H](CO)C(=O)N[C@H](CCN)C(=O)N[C@@H](Cc1c[nH]c2ccccc12)C(=O)N[C@@H](CO)C(=O)N[C@H](C(=O)N[C@@H](C(=O)N[C@@H](CCN)C(=O)O)[C@@H](C)CC)C(C)C)[C@H](C)CC [Oct-TriD] (Octanoyl-[dF][dDab][dI][dS][dW]SS[dDab]WSV[d(aIle)][Dab]-OH) | 8 (≈ 4.88 µM) | 8 (≈ 4.88 µM) | 16 (≈ 9.77 µM) | 16 (≈ 9.77 µM) | 8 (≈ 4.88 µM) | 32 (≈ 19.5 µM) | 32 (≈ 19.5 µM) | >64 | 16 (≈ 9.77 µM) | 16 (≈ 9.77 µM) | 32 (≈ 19.5 µM) | 4 (≈ 2.44 µM) | 4 (≈ 2.44 µM) | 16 (≈ 9.77 µM) | 8 (≈ 4.88 µM) | 16 (≈ 9.77 µM) | 8 (≈ 4.88 µM) | 64 (≈ 39.1 µM) | >64 | had lysed | 
4 | CN[C@H](CC(C)C)C(=O)N[C@H]1C(=O)N[C@@H](CC(N)=O)C(=O)N[C@H]2C(=O)N[C@H]3C(=O)N[C@H](C(=O)N[C@H](C(=O)O)c4cc(O)cc(O)c4-c4cc3ccc4O)[C@H](O)c3ccc(c(Cl)c3)Oc3cc2cc(c3O[C@@H]2O[C@H](CO)[C@@H](O)[C@H](O)[C@H]2O[C@H]2C[C@](C)(N)[C@H](O)[C@H](C)O2)Oc2ccc(cc2Cl)[C@H]1O [vancomycin, reference compound] |  |  |  |  |  |  |  |  |  |  |  |  |  |  |  |  |  |  |  |  | growth of S. aureus USA300 (MRSA) after addition of lipid II [5]: not inhibited

Reference: article PMC11106739, “Discovery and Derivatization of Tridecaptin Antibiotics with Altered Host Specificity and Enhanced Bioactivity” (ACS Chemical Biology, 2024)
